Measurements published in publication PMC4363092 (Journal of medicinal chemistry, 2014).

How the values were obtained:
[1] = biological target: T1, human NPP1 (Homo sapiens, UniProt P22413); experiment: Inhibition of NPP1, pNP-TMP as substrate; type: biochemical; conditions: Dixon and Cornish–Bowden methods
T1 sequence (P22413 1-925): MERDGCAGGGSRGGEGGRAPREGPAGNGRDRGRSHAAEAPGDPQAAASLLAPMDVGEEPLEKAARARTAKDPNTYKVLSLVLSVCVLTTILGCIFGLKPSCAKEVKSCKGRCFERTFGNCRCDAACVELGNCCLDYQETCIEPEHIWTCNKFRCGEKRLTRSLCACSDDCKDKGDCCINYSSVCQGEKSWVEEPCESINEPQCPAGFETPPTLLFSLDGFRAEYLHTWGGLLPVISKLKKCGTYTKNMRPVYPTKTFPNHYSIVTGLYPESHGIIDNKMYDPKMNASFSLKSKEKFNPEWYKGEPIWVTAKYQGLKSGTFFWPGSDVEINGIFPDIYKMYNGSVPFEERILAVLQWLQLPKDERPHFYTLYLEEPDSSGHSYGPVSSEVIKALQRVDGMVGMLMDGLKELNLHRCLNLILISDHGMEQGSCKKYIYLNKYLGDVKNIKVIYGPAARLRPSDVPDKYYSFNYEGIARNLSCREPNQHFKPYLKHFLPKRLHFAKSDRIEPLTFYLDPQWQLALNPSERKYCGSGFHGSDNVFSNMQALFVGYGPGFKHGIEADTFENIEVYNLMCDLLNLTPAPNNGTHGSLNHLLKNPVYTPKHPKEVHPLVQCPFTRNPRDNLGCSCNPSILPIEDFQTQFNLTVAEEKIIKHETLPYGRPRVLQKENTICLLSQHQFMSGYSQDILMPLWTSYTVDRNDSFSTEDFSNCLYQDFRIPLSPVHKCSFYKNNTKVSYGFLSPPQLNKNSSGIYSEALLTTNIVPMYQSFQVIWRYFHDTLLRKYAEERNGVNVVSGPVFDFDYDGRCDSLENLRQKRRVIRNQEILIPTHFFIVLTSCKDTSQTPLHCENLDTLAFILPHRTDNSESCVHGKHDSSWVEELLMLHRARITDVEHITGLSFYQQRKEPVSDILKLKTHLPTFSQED

[2] = biological target: T2, TNAP (Homo sapiens, UniProt P05186); experiment: TNAP stability assay: hydrolysis by TNAP; type: in vitro ADME; conditions: 1 h, pH 9, 100 μM (data not shown)
T2 sequence (P05186 18-502 limits assumed): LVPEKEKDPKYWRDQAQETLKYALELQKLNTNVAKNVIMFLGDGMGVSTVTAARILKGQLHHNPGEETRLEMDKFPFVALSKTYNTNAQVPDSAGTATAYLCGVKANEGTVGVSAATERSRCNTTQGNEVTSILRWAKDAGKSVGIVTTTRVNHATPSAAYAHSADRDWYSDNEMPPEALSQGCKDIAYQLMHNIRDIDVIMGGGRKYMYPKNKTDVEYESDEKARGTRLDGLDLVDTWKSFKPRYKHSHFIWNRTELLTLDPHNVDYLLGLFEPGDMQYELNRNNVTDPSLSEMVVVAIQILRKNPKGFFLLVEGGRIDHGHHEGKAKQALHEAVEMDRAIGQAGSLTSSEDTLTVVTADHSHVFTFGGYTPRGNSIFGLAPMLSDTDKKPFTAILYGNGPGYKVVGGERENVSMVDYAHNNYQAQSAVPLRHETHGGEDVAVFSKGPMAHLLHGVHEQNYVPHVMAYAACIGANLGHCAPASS

[3] = biological target: T3, human NTPDase1 (Homo sapiens, UniProt P49961); conditions: analogue 100 μM as substrate; activity with 100 μM ATP set as 100%
T3 sequence (P49961 1-510): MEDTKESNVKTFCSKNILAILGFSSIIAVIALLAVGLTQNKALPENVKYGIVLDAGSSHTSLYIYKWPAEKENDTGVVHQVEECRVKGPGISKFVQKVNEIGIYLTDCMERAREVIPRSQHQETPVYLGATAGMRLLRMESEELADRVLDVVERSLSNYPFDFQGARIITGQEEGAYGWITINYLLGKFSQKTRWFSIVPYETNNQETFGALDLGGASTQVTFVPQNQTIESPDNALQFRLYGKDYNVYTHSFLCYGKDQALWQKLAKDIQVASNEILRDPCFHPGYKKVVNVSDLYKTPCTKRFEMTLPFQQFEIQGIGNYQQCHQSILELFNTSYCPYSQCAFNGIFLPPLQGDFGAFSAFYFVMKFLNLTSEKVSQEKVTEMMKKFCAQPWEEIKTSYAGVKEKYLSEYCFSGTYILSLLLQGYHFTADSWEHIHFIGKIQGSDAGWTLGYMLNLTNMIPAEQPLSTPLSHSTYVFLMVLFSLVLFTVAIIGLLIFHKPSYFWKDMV

[4] = biological target: T4, human NTPDase2 (Homo sapiens, UniProt Q9Y5L3); conditions: analogue 100 μM as substrate; activity with 100 μM ATP set as 100%
T4 sequence (Q9Y5L3 1-495): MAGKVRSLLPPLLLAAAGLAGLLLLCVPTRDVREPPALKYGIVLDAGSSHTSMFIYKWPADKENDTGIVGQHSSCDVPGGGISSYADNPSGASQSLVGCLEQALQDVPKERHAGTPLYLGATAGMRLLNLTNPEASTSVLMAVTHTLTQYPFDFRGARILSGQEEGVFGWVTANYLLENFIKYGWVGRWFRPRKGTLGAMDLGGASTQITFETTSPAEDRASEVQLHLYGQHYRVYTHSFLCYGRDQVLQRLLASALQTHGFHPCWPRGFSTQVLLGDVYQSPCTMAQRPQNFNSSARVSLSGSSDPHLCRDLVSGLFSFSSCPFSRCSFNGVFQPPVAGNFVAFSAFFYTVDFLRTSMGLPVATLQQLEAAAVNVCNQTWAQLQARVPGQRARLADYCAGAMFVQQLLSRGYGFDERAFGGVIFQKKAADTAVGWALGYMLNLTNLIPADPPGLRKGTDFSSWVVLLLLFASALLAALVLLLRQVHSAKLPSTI

SMILES | type of inhibition [1] | hydrolysis by TNAP [2] | relative activity (%) ± SD of ATP hydrolysis, NTPDase1 [3] [%] | relative activity (%) ± SD of ATP hydrolysis, NTPDase2 [4] [%]
Nc1ncnc2c1ncn2[C@@H]1O[C@H](CO[P@](O)(=S)OP(=O)(O)C(Cl)(Cl)P(=O)(O)O)[C@@H](O)[C@H]1O [2a] | mixed-type inhibition, predominantly competitive | fully stable | 5.3 ± 0.2 | 5.2 ± 0.1
Nc1ncnc2c1ncn2[C@@H]1O[C@H](COP(=O)(O)CP(=O)(O)OP(O)(O)=S)[C@@H](O)[C@H]1O [compound 3] | mixed-type inhibition, predominantly competitive | 2.5% | 5.3 ± 0.2 | 4.7 ± 0.2
